Legend:
[1] = system: HCN4-GFP positive cells derived from H7 embryoid body (pacemaker cells); assay: Patch clamp measurement of the beating rate (spontaneous excitation) of the pacemaker cells; type: cell-based, human; conditions: for effect on beating rate of the pacemaker cells (in words): drug added to perfusion solution, patch clamp
Method: Patch clamp: Cells which had been collected by cell sorting were seeded on gelatin-coated, 8-mm diameter cover slips (Warner Instruments) in a number of about 1,500 cells. On or after the next day, a patch clump method was used to observe the automaticity and to analyze functions of ion channels.
The quantification of electrical activities by a patch clump method and of contraction by video recording was carried out.
The quantification of electrical activities by a patch clump method was carried out.
It was ascertained that the beating rate of the pacemaker cells according to the present invention was increased by means of isoproterenol, a sympathetic stimulant, and decreased by means of carbachol, a parasympathetic stimulant. In these experiments, a patch clamp method was used to measure directly electrical phenomena (spontaneous excitation) from the pacemaker cells. To the perfusion solution were added isoproterenol, a sympathetic stimulant, which increased [sic], and then carbachol, a parasympathetic stimulant, to examine their effects.

[2] = system: heart of a rat with atrioventricular block; assay: Intraperitoneal isoproterenol in rat with atrioventricular block implanted with pacemaker cells, electrocardiogram; type: in vivo; conditions: isoproterenol injected into the peritoneal cavity; AVB rat with implants; FIG. 19
Method: Male ICR rats of 10 weeks old were used. Rats were administered with a 0.2 ml injection of an anesthetic (0.2% pentobarbital, MiliQ). Breathing assistance was provided by a mechanical ventilator and electrocardiogram monitoring was performed. A thoracotomy was made using an electrosurgical knife and 15 μl of 30% glycerol was injected using a microsyringe, into a place where the pulmonary artery is attached to the heart. It was ascertained, from the electrocardiogram, whether AVE wave forms (decrease in the beating rate, independent P and QRS waves) appeared when the injection allowed the atrioventricular node to be damaged. If AVB wave forms were not identified, injection of glycerol was done again. Thirty minutes after AVB wave forms were identified, the chest was closed after AVB wave forms were identified on the electrocardiogram. The ventilator was removed from each of the rats, which were subjected to oxygen inhalation at 37° C. When recovered from anesthesia, the rats were returned back to their cages. Pacemaker cells which were GFP positive cells were selected and collected by cell sorting. The pacemaker cells were collected in conical tubes, and then centrifuged at 1,000 rpm for 5 minutes to form a cell pellet, which was then suspended in differentiation induction medium. […]

Structure (SMILES) | beating rate in the presence of isoproterenol ([1]; 10^−5 M isoproterenol in perfusion solution, before: 54 beats per 10 seconds, FIG. 16) | effect on beating rate of the pacemaker cells (in words) [1] | beating rate after washing out of isoproterenol ([1]; washout after 10^−5 M isoproterenol, FIG. 16) | ventricular rhythm resulting from the implanted pacemaker cells after isoproterenol [2] | beating rate in the presence of carbachol ([1]; carbachol in perfusion solution, after isoproterenol washout, before: 17 beats per 10 seconds, FIG. 16) | beating rate after washing out of carbachol ([1]; carbachol washed out, FIG. 16)
CC(C)NCC(O)c1ccc(O)c(O)c1 (stereo not shown) [isoproterenol] | 61 beats per 10 seconds | increased | 45 beats per 10 seconds | accelerated (tachycardia) |  | 
C[N+](C)(C)CCOC(N)=O [carbachol] |  | decreased |  |  | 8 beats per 10 seconds | 14 beats per 10 seconds

Source: patent US20120231450A1, “NOVEL PACEMAKER CELL” (priority 2009, published 2012)
